Here are results for eleven compounds from patent US20240425464A1, “Substituted Monohydrazides as Potent Antifungal Agents” (University of Kentucky Research Foundation, priority 2023, published 2024).

The test system of test [1] is panel of ten C. auris strains (AR Bank #381-390). Briefly: MIC determination, summary over the C. auris panel. Format: cell-based, Candida auris. The note with it: Candidozyma auris. As to the method:
(§1) The antifungal agent amphotericin B (AmB) was purchased from VWR (Radnor PA, USA). AmB was dissolved in DMSO at a final concentration of 5 mg/mL and was stored at −20° C., protected from light. Candida albicans American Type Culture Collection (ATCC) 10231 (strain A), C. albicans ATCC 64124 (B), and C. albicans ATCC MYA-2876 (C) were obtained from Utah State University. C. albicans ATCC 90819 (D), C. albicans ATCC MYA-2310 (E), C. albicans ATCC MYA-1237 (F), C. albicans ATCC MYA-1003 (G), Candida glabrata ATCC 2001 (H), Candida krusei ATCC 6258 (I), Candida parapsilosis ATCC 22019 (J), Cryptococcus neoformans ATCC MYA-895 (M), Aspergillus terreus ATCC MYA-3633 (N), and Aspergillus flavus ATCC MYA-3631 (0) were obtained from the American Type Culture Collection (ATCC; Manassas, VA, USA). Aspergillus nidulans ATCC 38163 (P) was obtained from University of Kentucky. Clinically derived Aspergillus fumigatus NRRL 163 (Q), A. fumigatus NRRL 5109 (R), and A. fumigatus NRRL 6113 (S) were obtained from Northern Regional Research Laboratory (NRRL). Candida auris 384 (K), C. auris 390 (L), and fungal strains 381-400 (including 10 C. auris (AR Bank #381-390), 3 Candida duobushaemulonii (AR Bank #391, AR Bank #392, and AR Bank #394), 2 Candida haemulonii (AR Bank #393 and AR Bank #395), 1 Kodameae ohmeri (AR Bank #396), 1 C. krusei (AR Bank #397), 1 Candida lusitaniae (AR Bank #398), and 2 Saccharomyces cerevisiae strains (AR Bank #399 and AR Bank #400)) were part of a larger fungal library from the AR Bank maintained by the Centers for Disease Control and Prevention (CDC; Atlanta, GA, USA). Filamentous fungi and yeasts were cultivated at 35° C. in RPMI 1640 medium (with L-glutamine, without sodium bicarbonate, Sigma-Aldrich, St. Louis, MO) buffered to a pH of 7.0 with 0.165 M morpholinepropanesulfonic acid (MOPS) buffer (Sigma-Aldrich). For cytotoxicity assays, HepG2 and the mouse macrophage cell line J774A.1 were obtained from University of Kentucky. The human embryonic kidney cell line, HEK-293, was bought from the ATCC. Mammalian cells were grown in Dulbecco's Modified Eagle's Medium (DMEM) (from VWR) with 10% fetal bovine serum (FBS) (from VWR) and 1% Pen/Strep (from ATCC). Cell lines were cultured at 37° C. with 5% CO2 and passaged by trypsinization with 0.05% trypsin: 0.53 mM EDTA (from Sigma-Aldrich).
(§2) From the actively growing yeast culture, 100 µL were then transferred to 900 μL of RPMI 1640 medium and re-adjusted to achieve OD600 of 0.12 (˜1×10^6 CFU/mL). The cell suspension was further diluted to achieve 1:100 in RPMI 1640 medium.

In test [2] the test system is Candida duobushaemulonii AR Bank #391. Briefly: MIC determination by in vitro antifungal assay. It counts as cell-based. As to the method: as §1, §2
Test [3] relates to Candida duobushaemulonii AR Bank #392. As to the kind of experiment: MIC determination by in vitro antifungal assay. It counts as cell-based. Here is the method: as §1, §2
Test [4] relates to Candida duobushaemulonii AR Bank #394. Briefly: MIC determination by in vitro antifungal assay. Format: cell-based. As to the method: as §1, §2
The test system of test [5] is Candida haemulonii AR Bank #393. Briefly: MIC determination by in vitro antifungal assay. It counts as cell-based. As to the method: as §1, §2
The subject of test [6] is Candida haemulonii AR Bank #395. Briefly: MIC determination by in vitro antifungal assay. It counts as cell-based. As to the method: as §1, §2
For test [7], the system named is Candida krusei AR Bank #397. As to the kind of experiment: MIC determination by in vitro antifungal assay. Format: cell-based. To be noted: Candida strain AR Bank #397. As to the method: as §1, §2
The subject of test [8] is Candida lusitaniae AR Bank #398. As to the kind of experiment: MIC determination by in vitro antifungal assay. It counts as cell-based. The note with it: Candida strain AR Bank #398. Here is the method:
as §1, §2

For test [9], the system named is Kodameae ohmeri AR Bank #396. Briefly: MIC determination by in vitro antifungal assay. Format: cell-based. The note with it: strain AR Bank #396. As to the method:
as §1, §2

For test [10], the system named is Saccharomyces cerevisiae AR Bank #399. As to the kind of experiment: MIC determination by in vitro antifungal assay. Format: cell-based. Here is the method:
as §1, §2

The subject of test [11] is ten other fungal strains (AR Bank #391-400). As to the kind of experiment: MIC determination, summary over ten additional fungal strains. Format: cell-based. The note with it: read-out: MIC range. Here is the method:
as §1, §2

The mark [12] stands for this setting: against all ten C. auris strains tested (AR Bank #381-390).
[13] abbreviates: Candidozyma duobushaemuli, read-out: MIC.
Where [14] appears, read: Candidozyma haemuli, read-out: MIC.
The mark [15] stands for this setting: Pichia kudriavzevii, read-out: MIC.
Where [16] appears, read: Clavispora lusitaniae, read-out: MIC.
[17] abbreviates: all C. auris strains tested with the exception of AR Bank #390.

Structures are written as SMILES. In brackets after ≈: the same amount, converted by molar mass. Read-outs that look alike come from different tables or passages of the source.

As for `O=C(NNc1ccc(F)cc1F)c1ncc(F)cc1F` [Compound 7g], the MIC in test [1] (setting [12]) was in the range of 0.12 to 7.8 µg/mL (≈ 0.421 to 27.3 µM).
On the same count and under the same terms, the result for `O=C(NNc1ccc(F)cc1)c1nc(F)ccc1F` [Compound 8d] reads 0.06 to 1.95 µg/mL (≈ 0.225 to 7.3 µM).
Turning to `COc1ccc(NNC(=O)c2cnccn2)cc1` [Compound 9f], the MIC in test [2] (setting [13]) came to 0.49 µg/mL (≈ 2.01 µM); in test [3] (setting [13]), 0.49 µg/mL (≈ 2.01 µM); in test [4] (setting [13]), 0.49 µg/mL (≈ 2.01 µM); in [5] (setting [14]), 0.24 µg/mL (≈ 0.983 µM); in [6] (setting [14]), 0.49 µg/mL (≈ 2.01 µM); in test [7] (setting [15]) it was 0.49 µg/mL (≈ 2.01 µM). The MIC in [8] (setting [16]) was 0.98 µg/mL (≈ 4.01 µM); in [9] (read-out: MIC), 0.98 µg/mL (≈ 4.01 µM); in test [10] (read-out: MIC) it was 0.98 µg/mL (≈ 4.01 µM); in [1] (setting [12]), 0.06 to 1.95 µg/mL (≈ 0.246 to 7.98 µM); in test [11] it was 0.06 to 1.95 µg/mL (≈ 0.246 to 7.98 µM).
For `O=C(NNc1ccc(F)cc1)c1cccc(Br)n1` [Compound 6d], the MIC in test [1] (setting [12]) was 0.12 to 7.8 µg/mL (≈ 0.387 to 25.2 µM).
`O=C(NNc1cccc(Cl)c1)c1cnccn1` [Compound 9b]: the MIC in [2] (setting [13]) turned out to be 0.24 µg/mL (≈ 0.965 µM); in test [3] (setting [13]) it was 0.12 µg/mL (≈ 0.483 µM); in test [4] (setting [13]), 0.12 µg/mL (≈ 0.483 µM); in test [5] (setting [14]) it was 0.24 µg/mL (≈ 0.965 µM); in [6] (setting [14]) it was 0.24 µg/mL (≈ 0.965 µM); in [7] (setting [15]), 0.12 µg/mL (≈ 0.483 µM). The MIC was 0.49 µg/mL (≈ 1.97 µM) in test [8] (setting [16]); 0.12 µg/mL (≈ 0.483 µM) in test [9] (read-out: MIC); 0.98 µg/mL (≈ 3.94 µM) in test [10] (read-out: MIC); 0.06 to 1.95 µg/mL (≈ 0.241 to 7.84 µM) in test [1] (setting [12]); 0.06 to 1.95 µg/mL (≈ 0.241 to 7.84 µM) in test [11].
`O=C(NNc1ccc(F)cc1F)c1nc(F)ccc1F` [Compound 8g] showed an MIC in test [1] (setting [17]) of 0.49 to 1.95 µg/mL (≈ 1.72 to 6.84 µM).
Consider `O=C(NNc1ccc(F)cc1)c1ncc(F)cc1F` [Compound 7d], for which, in [1] (setting [12]), the MIC is 0.12 to 7.8 µg/mL (≈ 0.449 to 29.2 µM).
In test [1] (setting [17]), `COc1ccc(NNC(=O)c2ncc(F)cc2F)cc1` [Compound 7f] showed an MIC of 0.49 to 1.95 µg/mL (≈ 1.75 to 6.98 µM).
Take `C[C@@H]1[C@H](O)[C@@H](C)/C=C/C=C/C=C/C=C/C=C/C=C/C=C/[C@H](O[C@@H]2O[C@H](C)[C@@H](O)[C@H](N)[C@@H]2O)C[C@@H]2O[C@](O)(C[C@@H](O)C[C@@H](O)[C@H](O)CC[C@@H](O)C[C@@H](O)CC(=O)O[C@H]1C)C[C@H](O)[C@H]2C(=O)O` [AmB, amphotericin B, reference compound]: the MIC in test [2] is recorded as 7.8 μg/mL^−1; in [3] it was 7.8 μg/mL^−1; in [4] it was 0.98 μg/mL^−1; in [5], 13.6 μg/mL^−1; in [6] it was 3.9 μg/mL^−1; in test [7], 0.49 μg/mL^−1. The MIC in test [8] is recorded as 3.9 μg/mL^−1; in [9], 1.95 μg/mL^−1; in [10], 15.6 μg/mL^−1.
Compound `COc1ccc(NNC(=O)c2nc(F)ccc2F)cc1` [Compound 8f] registered an MIC in test [1] (setting [17]) of 0.49 to 1.95 µg/mL (≈ 1.75 to 6.98 µM).
For `O=C(NNc1ccc(Cl)cc1)c1cnccn1` [Compound 9e], the MIC in [2] is 1.95 μg/mL^−1; in test [3], 1.95 μg/mL^−1; in test [4] it was 1.95 μg/mL^−1; in test [5], 1.95 μg/mL^−1; in [6], 3.9 μg/mL^−1; in test [7], 1.9 μg/mL^−1. Further, the results for the MIC in test [8], in [9] and in [10] were 3.9 μg/mL^−1, 1.95 μg/mL^−1 and 3.9 μg/mL^−1, respectively.
